Assay results published in patent US8642799B2, “Cysteine protease inhibitors for the treatment of parasitic diseases” (Merck Canada Inc., priority 2007, dated 2014).
pIC50: −log10 of the molar value.

Target: cruzipain (Trypanosoma cruzi, UniProt P25779)
Assay: biochemical
Conditions: 50 pM cruzipain, pH 5.5, 15 minutes preincubation, 2 μM Z-Phe-Arg-AMC substrate
Experimental: The assay solutions were mixed and incubated for 15 minutes at room temperature prior to the addition of 2 μM of Z-Phe-Arg-AMC substrate. […] Percent of inhibition were calculated by fitting experimental values to standard mathematical model for dose response curve.

Chain of cruzipain (P25779 123-467): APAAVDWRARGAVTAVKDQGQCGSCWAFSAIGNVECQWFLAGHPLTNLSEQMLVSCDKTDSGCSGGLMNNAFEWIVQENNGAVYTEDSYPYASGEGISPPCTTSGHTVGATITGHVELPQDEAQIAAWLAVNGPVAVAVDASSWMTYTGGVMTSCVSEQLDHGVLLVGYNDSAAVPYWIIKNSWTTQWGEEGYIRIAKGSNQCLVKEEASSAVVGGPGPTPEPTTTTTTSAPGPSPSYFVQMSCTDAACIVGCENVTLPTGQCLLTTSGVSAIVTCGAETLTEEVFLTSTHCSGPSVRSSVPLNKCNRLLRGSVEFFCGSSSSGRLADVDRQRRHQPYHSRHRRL

Structure (SMILES)	pIC50
CS(=O)(=O)c1ccc(-c2ccc([C@H](N[C@@H](CC(Cl)Cl)C(=O)N[C@H](C#N)Cc3ccc(C#N)cc3F)C(F)(F)F)cc2)cc1 [Example 1, (S)-4,4-Dichloro-N-[(S)-cyano-(4-cyano-2-fluoro-benzyl)-methyl]-2-[(S)-2,2,2-trifluoro-1-(4′-methanesulfonyl-biphenyl-4-yl)-ethylamino]-butyramide]	9.85
CC(C)(F)C[C@H](N[C@@H](c1ccc(-c2ccc(S(C)(=O)=O)cc2)cc1)C(F)(F)F)C(=O)N[C@H](C#N)Cc1ccc(C#N)cc1 [Example 3, (S)-4-Fluoro-4-methyl-2-[(S)-2,2,2-trifluoro-1-(4′-methanesulfonyl-biphenyl-4-yl)-ethylamino]-pentanoic acid [(S)-1-cyano-2-(4-cyano-phenyl)-ethyl]-amide]	8.82
CC(C)(F)C[C@H](N[C@@H](c1ccc(-c2ccc(S(C)(=O)=O)cc2Cl)cc1)C(F)(F)F)C(=O)NC(C#N)Cc1ccc(C#N)cc1Cl (stereo partly drawn) [Example 6, (S)-2-[(S)-1-(2′-Chloro-4′-methanesulfonyl-biphenyl-4-yl)-2,2,2-trifluoro-ethylamino]-4-fluoro-4-methyl-pentanoic acid [2-(2-chloro-4-cyano-phenyl)-1-cyano-ethyl]-amide]	8.92
CC(C)(F)C[C@H](N[C@@H](c1ccc(-c2ccc(S(C)(=O)=O)cc2Cl)cc1)C(F)(F)F)C(=O)NC(C#N)Cc1ccc(C#N)cc1F (stereo partly drawn) [Example 7, (S)-2-[(S)-1-(2′-Chloro-4′-methanesulfonyl-biphenyl-4-yl)-2,2,2-trifluoro-ethylamino]-4-fluoro-4-methyl-pentanoic acid [1-cyano-2-(4-cyano-2-fluoro-phenyl)-ethyl]-amide]	9.05
CC(C)C[C@H](N[C@@H](c1ccc(-c2ccc(S(C)(=O)=O)cc2)cc1)C(F)(F)F)C(=O)NC(C#N)Cc1ccc(C#N)cc1 (stereo partly drawn) [Example 8, (S)-4-Methyl-2-[(S)-2,2,2-trifIuoro-1-(4′-methanesulfonyl-biphenyl-4-yl)-ethylamino]-pentanoic acid [1-cyano-2-(4-cyano-phenyl)-ethyl]-amide]	9.70
CC(C)C[C@H](N[C@@H](c1ccc(Br)cc1)C(F)(F)F)C(=O)N[C@H](C#N)Cc1ccc(S(C)(=O)=O)cc1 [Example 9, (S)-2-[(S)-1-(4-Bromo-phenyl)-2,2,2-trifluoro-ethylamino]-4-methyl-pentanoic acid [(S)-1-cyano-2-(4-methanesulfonyl-phenyl)-ethyl]-amide]	9.22
CC(C)(F)C[C@H](N[C@@H](c1ccc(-c2ccc(S(C)(=O)=O)cc2)cc1)C(F)(F)F)C(=O)N[C@H](C#N)Cc1ccc(-c2cccnc2)cc1 [Example 14, (S)-4-Fluoro-4-methyl-2-[(S)-2,2,2-trifluoro-1-(4′-methanesulfonyl-biphenyl-4-yl)-ethylamino]-pentanoic acid [(S)-1-cyano-2-(4-pyridin-3-yl-phenyl)-ethyl]-amide]	8.15
CCOC(=O)c1ccc(C[C@@H](C#N)NC(=O)[C@H](CC(C)(C)F)N[C@@H](c2ccc(-c3ccc(S(C)(=O)=O)cc3)cc2)C(F)(F)F)cc1 [Example 15, 4-((S)-2-Cyano-2-{(S)-4-fluoro-4-methyl-2-[(S)-2,2,2-trifluoro-1-(4′-methanesulfonyl-biphenyl-4-yl)-ethylamino]-pentanoylamino}-ethyl)-benzoic acid ethyl ester]	8.36
CC(C)(F)C[C@H](N[C@@H](c1ccc(-c2ccc(S(C)(=O)=O)cc2)cc1)C(F)(F)F)C(=O)N[C@H](C#N)Cc1ccc(F)cc1 [Example 16, (S)-4-Fluoro-4-methyl-2-[(S)-2,2,2-trifluoro-1-(4′-methanesulfonyl-biphenyl-4-yl)-ethylamino]-pentanoic acid [(S)-cyano-(4-fluoro-benzyl)-methyl]-amide]	8.21
CC(C)(F)C[C@H](N[C@@H](c1ccc(-c2ccc(S(C)(=O)=O)cc2)cc1)C(F)(F)F)C(=O)N[C@H](C#N)Cc1ccccc1F [Example 17, (S)-Fluoro-4-methyl-2-[(S)-2,2,2-trifluoro-1-(4′-methanesulfonyl-biphenyl-4-yl)-ethylamino]-pentanoic acid [(S)-1-cyano-2-(2-fluoro-phenyl)-ethyl]-amide]	9.05
CC(C)(F)C[C@H](N[C@@H](c1ccc(-c2ccc(S(C)(=O)=O)cc2)cc1)C(F)(F)F)C(=O)N[C@H](C#N)Cc1ccc(Cl)cc1Cl [Example 18, (S)-4-Fluoro-4-methyl-2-[(S)-2,2,2-trifluoro-1-(4′-methanesulfonyl-biphenyl-4-yl)-ethylamino]-pentanoic acid [(S)-1-cyano-2-(2,4-dichloro-phenyl)-ethyl]-amide]	8.89
CC(C)(F)C[C@H](N[C@@H](c1ccc(-c2ccc(S(C)(=O)=O)cc2)cc1)C(F)(F)F)C(=O)N[C@H](C#N)Cc1ccc(C(F)(F)F)cc1 [Example 19, (S)-4-Fluoro-4-methyl-2-[(S)-2,2,2-trifluoro-1-(4′-methanesulfonyl-biphenyl-4-yl)-ethylamino]-pentanoic acid [(S)-1-cyano-2-(4-trifluoromethyl-phenyl)-ethyl]-amide]	7.91
CC(C)(F)C[C@H](N[C@@H](c1ccc(-c2ccc([C@@H](O)C(F)F)cc2)cc1)C(F)(F)F)C(=O)N[C@H](C#N)Cc1ccc(S(C)(=O)=O)cc1 [Example 20, (S)-2-{(S)-1-[4′-((R)-2,2-Difluoro-1-hydroxy-ethyl)-biphenyl-4-yl]-2,2,2-trifluoro-ethylamino}-4-fluoro-4-methyl-pentanoic acid [(S)-1-cyano-2-(4-methanesulfonyl-phenyl)-ethyl]-amide]	8.08
CC(C)C[C@H](N[C@@H](c1ccc(Br)cc1)C(F)(F)F)C(=O)N[C@H](C#N)Cc1ccc(C#N)cc1 [Example 21, (S)-2-[(S)-1-(4-Bromo-phenyl)-2,2,2-trifluoro-ethylamino]-4-methyl-pentanoic acid [(S)-1-cyano-2-(4-cyano-phenyl)-ethyl]-amide]	9.03
CC(C)(F)C[C@H](N[C@@H](c1ccc(-c2ccc(-c3ccc(S(C)(=O)=O)cc3)cc2)cc1)C(F)(F)F)C(=O)N[C@H](C#N)Cc1ccccc1 [Example 24, (S)-4-Fluoro-4-methyl-2-[(S)-2,2,2-trifluoro-1-(4-methanesulfonyl-[1,1′;4′,1″]terphenyl-4″-yl)-ethylamino]-pentanoic acid ((S)-benzyl-cyano-methyl)-amide]	7.80
C[S+]([O-])c1ccc(-c2ccc([C@H](N[C@@H](CC(C)(C)F)C(=O)N[C@H](C#N)Cc3ccc(C#N)cc3F)C(F)(F)F)cc2)cc1 (stereo partly drawn) [Example 25, (S)-4-Fluoro-4-methyl-2-[(S)-2,2,2-trifluoro-1-(4′-methanesulfinyl-biphenyl-4-yl)-ethylamino]-pentanoic acid [(S)-1-cyano-2-(4-cyano-2-fluoro-phenyl)-ethyl]-amide]	9.12
CSc1ccc(-c2ccc([C@H](N[C@@H](CC(C)(C)F)C(=O)N[C@H](C#N)Cc3ccc(C#N)cc3F)C(F)(F)F)cc2)cc1 [Example 26, (S)-4-Fluoro-4-methyl-2-[(S)-2,2,2-trifluoro-1-(4′-methylsulfanyl-biphenyl-4-yl)-ethylamino]-pentanoic acid [(S)-1-cyano-2-(4-cyano-2-fluoro-phenyl)-ethyl]-amide]	8.38
CC(C)(F)C[C@H](N[C@@H](c1ccc(-c2ccc(C3(C#N)CC3)cc2)cc1)C(F)(F)F)C(=O)N[C@H](C#N)Cc1ccccc1 [Example 27, (S)-2-{(S)-1-[4′-(1-Cyano-cyclopropyl)-biphenyl-4-yl]-2,2,2-trifluoro-ethylamino}-4-fluoro-4-methyl-pentanoic acid ((S)-1-cyano-2-phenyl-ethyl)-amide]	7.98
CC(C)(F)C[C@H](N[C@@H](c1ccc(-c2ccc(C3(c4ncon4)CC3)cc2)cc1)C(F)(F)F)C(=O)N[C@H](C#N)Cc1ccccc1 [Example 29, (S)-4-Fluoro-4-methyl-2-{(S)-2,2,2-trifluoro-1-[4′-(1-[1,2,4]oxadiazol-3-yl-cyclopropyl)-biphenyl-4-yl]-ethylamino}-pentanoic acid ((S)-1-cyano-2-phenyl-ethyl)-amide]	7.70
CC(C)(F)C[C@H](N[C@@H](c1ccc(-c2ccc(S(N)(=O)=O)cc2)cc1)C(F)(F)F)C(=O)N[C@H](C#N)Cc1ccccc1 [Example 31, (S)-4-Fluoro-4-methyl-2-[(S)-2,2,2-trifluoro-1-(4′-sulfamoyl-biphenyl-4-yl)-ethylamino]-pentanoic acid ((S)-1-cyano-2-phenyl-ethyl)-amide]	7.80
CC(C)(F)C[C@H](N[C@@H](c1ccc(-c2ccc([C@@H](O)C(F)F)cc2)cc1)C(F)(F)F)C(=O)N[C@H](C#N)Cc1ccc(C#N)cc1F [Example 32, (S)-2-{(S)-1-[4′-((R)-2,2-Difluoro-1-hydroxy-ethyl)-biphenyl-4-yl]-2,2,2-trifluoro-ethylamino}-4-fluoro-4-methyl-pentanoic acid [(S)-cyano-(4-cyano-2-fluoro-benzyl)-methyl]-amide]	9.05
CC(C)(F)C[C@H](N[C@@H](c1ccc(-c2ccc(S(C)(=O)=O)cc2)cc1)C(F)(F)F)C(=O)NC(C#N)Cc1ccc(C(F)(F)F)cc1F (stereo partly drawn) [Example 33, (S)-4-Fluoro-4-methyl-2-[(S)-2,2,2-trifluoro-1-(4′-methanesulfonyl-biphenyl-4-yl)-ethylamino]-pentanoic acid [cyano-(2-fluoro-4-trifluoromethyl-benzyl)-methyl]-amide]	8.46
CC(C)(F)C[C@H](N[C@@H](c1ccc(-c2ccc(S(C)(=O)=O)cc2)cc1)C(F)(F)F)C(=O)NC(C#N)Cc1ccc(F)cc1F (stereo partly drawn) [Example 34, (S)-4-Fluoro-4-methyl-2-[(S)-2,2,2-trifluoro-1-(4′-methanesulfonyl-biphenyl-4-yl)-ethylamino]-pentanoic acid [cyano-(2,4-difluoro-benzyl)-methyl]-amide]	8.59
Cn1cccc1-c1ccc([C@H](N[C@@H](CC(C)(C)F)C(=O)N[C@H](C#N)Cc2ccccc2)C(F)(F)F)cc1 [Example 35, (S)-4-Fluoro-4-methyl-2-{(S)-2,2,2-trifluoro-1-[4-(1-methyl-1H-pyrrol-2-yl)-phenyl]-ethylamino}-pentanoic acid ((S)-1-cyano-2-phenyl-ethyl)-amide]	7.91
